Tests used:
[1] = target: T1, Sodium channel protein type 2 subunit alpha (Homo sapiens, UniProt Q99250); assay: Inhibition of human Nav1.2 expressed in HEK293 cells assessed as test to control ratio at 0.1 uM measured after 5 mins by whole cell voltage clamp electrophysiological analysis; assay type: cell-based
[2] = target: T1, Sodium channel protein type 2 subunit alpha; assay: Inhibition of human Nav1.2 expressed in HEK293 cells assessed as test to control ratio at 1 uM measured after 5 mins by whole cell voltage clamp electrophysiological analysis; assay type: cell-based
[3] = target: T1, Sodium channel protein type 2 subunit alpha; assay: Inhibition of human Nav1.2 expressed in HEK293 cells assessed as test to control ratio at 10 uM measured after 5 mins by whole cell voltage clamp electrophysiological analysis; assay type: cell-based
[4] = target: T1, Sodium channel protein type 2 subunit alpha; assay: Inhibition of human Nav1.2 expressed in HEK293 cells at 10 uM measured after 5 mins by whole cell voltage clamp electrophysiological analysis relative to control; assay type: cell-based
[5] = tested on: Mus musculus; assay: Antiepileptic activity in 6 Hz(32 mA)-induced seizure male C57BL mouse model assessed as protection against seizure at 200 mg/kg, ip administered for 30 mins by epilepsy test; assay type: functional; conditions: 0.5 h
[6] = tested on: Mus musculus; assay: Antiepileptic activity in MES-induced seizure male ICR mouse model assessed as protection against tonic hind limb extension at 300 mg/kg, ip measured after 30 mins relative to control; assay type: functional; conditions: 0.5 h

T1 sequence (Q99250 whole entry, looked up): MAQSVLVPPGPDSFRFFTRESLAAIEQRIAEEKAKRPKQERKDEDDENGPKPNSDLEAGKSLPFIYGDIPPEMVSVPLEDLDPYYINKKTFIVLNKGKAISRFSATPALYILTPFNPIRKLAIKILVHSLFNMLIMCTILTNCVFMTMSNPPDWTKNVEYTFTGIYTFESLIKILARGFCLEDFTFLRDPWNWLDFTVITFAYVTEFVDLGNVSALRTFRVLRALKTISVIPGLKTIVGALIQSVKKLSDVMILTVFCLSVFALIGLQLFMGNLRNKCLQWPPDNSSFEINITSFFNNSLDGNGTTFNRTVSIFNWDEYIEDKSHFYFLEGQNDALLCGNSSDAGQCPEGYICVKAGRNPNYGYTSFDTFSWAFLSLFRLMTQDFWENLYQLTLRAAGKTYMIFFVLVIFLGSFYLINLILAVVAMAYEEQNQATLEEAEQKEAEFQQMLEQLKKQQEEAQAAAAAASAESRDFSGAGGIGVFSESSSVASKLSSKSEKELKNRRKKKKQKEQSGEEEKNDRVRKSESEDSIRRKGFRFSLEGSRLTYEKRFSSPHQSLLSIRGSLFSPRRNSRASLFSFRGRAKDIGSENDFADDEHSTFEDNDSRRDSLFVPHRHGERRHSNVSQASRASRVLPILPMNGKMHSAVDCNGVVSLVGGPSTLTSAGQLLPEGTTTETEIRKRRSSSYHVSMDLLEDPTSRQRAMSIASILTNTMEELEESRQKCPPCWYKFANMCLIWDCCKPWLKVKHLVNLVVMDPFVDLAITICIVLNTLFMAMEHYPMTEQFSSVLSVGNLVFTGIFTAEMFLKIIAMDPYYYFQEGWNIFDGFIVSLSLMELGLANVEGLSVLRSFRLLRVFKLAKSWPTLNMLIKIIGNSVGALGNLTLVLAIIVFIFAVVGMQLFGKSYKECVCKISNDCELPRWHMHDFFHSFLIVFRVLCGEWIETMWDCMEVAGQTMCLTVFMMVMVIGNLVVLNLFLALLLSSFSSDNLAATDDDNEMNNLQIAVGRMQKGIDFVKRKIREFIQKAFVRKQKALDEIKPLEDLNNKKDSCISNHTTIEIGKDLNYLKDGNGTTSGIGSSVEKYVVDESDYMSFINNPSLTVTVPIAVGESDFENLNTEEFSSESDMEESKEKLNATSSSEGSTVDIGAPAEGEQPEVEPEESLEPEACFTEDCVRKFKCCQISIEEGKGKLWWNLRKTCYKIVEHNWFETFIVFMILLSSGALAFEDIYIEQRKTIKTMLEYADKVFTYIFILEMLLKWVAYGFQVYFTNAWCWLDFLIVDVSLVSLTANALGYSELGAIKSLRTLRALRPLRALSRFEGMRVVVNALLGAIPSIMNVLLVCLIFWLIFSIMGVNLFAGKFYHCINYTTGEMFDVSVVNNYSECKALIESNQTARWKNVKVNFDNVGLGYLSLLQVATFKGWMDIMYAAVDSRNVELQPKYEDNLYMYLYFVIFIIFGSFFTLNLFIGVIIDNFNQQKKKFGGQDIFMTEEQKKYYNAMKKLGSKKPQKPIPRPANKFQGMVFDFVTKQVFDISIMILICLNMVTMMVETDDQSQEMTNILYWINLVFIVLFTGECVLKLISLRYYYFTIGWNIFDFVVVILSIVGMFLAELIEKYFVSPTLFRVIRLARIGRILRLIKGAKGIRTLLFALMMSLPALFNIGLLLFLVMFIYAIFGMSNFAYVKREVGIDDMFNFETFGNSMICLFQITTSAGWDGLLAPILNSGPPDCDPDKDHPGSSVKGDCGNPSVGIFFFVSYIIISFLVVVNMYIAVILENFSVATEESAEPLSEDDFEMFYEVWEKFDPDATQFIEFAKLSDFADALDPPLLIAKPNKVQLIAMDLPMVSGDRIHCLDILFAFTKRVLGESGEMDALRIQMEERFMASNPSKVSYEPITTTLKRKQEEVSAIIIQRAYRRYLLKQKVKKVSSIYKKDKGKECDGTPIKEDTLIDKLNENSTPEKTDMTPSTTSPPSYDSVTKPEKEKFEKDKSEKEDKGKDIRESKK

SMILES | T/C [1] | T/C [2] | T/C [3] | inhibition [4] | Activity [5] | Activity [6]
COc1cccc(-c2cc(N3CCCc4ccc(OCc5ccccc5)cc4C3)nc(N)n2)c1 | 0.77 | 0.11 | 0.02 | – | – | –
COc1cccc(-c2cc(N3CC4CC(C3)c3ccccc34)nc(NS(=O)(=O)c3ccc(C)cc3C)n2)c1 | – | 0.84 | 0.45 | – | – | –
COc1cccc(-c2cc(N3Cc4ccccc4C3)nc(N)n2)c1 | – | – | 0.75 | – | – | –
COc1cccc(-c2cc(N3CCc4nc(C)sc4C3)nc(N)n2)c1 | – | – | 0.79 | – | – | –
Nc1nc(-c2ccc3c(c2)OCCC3)cc(N2CCCc3ccccc3C2)n1 | – | 0.72 | 0.07 | – | – | –
COc1cccc(-c2cc(N3CCCc4cc(F)ccc4C3)nc(N)n2)c1 | 0.39 | 0.03 | 0.04 | – | – | –
COc1cccc(-c2cc(NCCc3ccc(OC)c(OC)c3)nc(N)n2)c1 | 0.61 | 0.35 | 0.15 | – | – | –
COc1cccc(-c2cc(N3CC4CC(C3)c3ccccc34)nc(NS(=O)(=O)c3cccc(C)c3)n2)c1 | – | 0.68 | 0.33 | – | – | –
COc1cccc(-c2cc(N3CCCc4c(cc(OC)cc4OC)C3)nc(N)n2)c1 | – | 0.53 | 0.14 | – | – | –
Nc1nc(-c2ccc(OC3CCCCO3)cc2)cc(N2CCCc3ccccc3C2)n1 (configuration not stated) | – | 0.76 | 0.14 | – | – | –
COc1cccc(-c2cc(N3CCCc4ccc(F)cc4C3)nc(N)n2)c1 | 0.84 | 0.03 | 0 | – | – | –
Nc1nc(-c2cccc(OC(F)(F)F)c2)cc(N2CCCc3ccccc3C2)n1 | – | 0.81 | 0.07 | – | – | –
Nc1nc(-c2cccc3ccccc23)cc(N2CCCc3ccccc3C2)n1 | – | 0.85 | 0.08 | – | – | –
COc1cccc(-c2nc(N)nc(N3CCCc4ccc(C)cc4C3)c2F)c1 | 0.88 | 0.19 | 0.01 | – | – | –
Nc1nc(-c2ccc3c(c2)CCO3)cc(N2CCCc3ccccc3C2)n1 | – | 0.82 | 0.07 | – | – | –
COc1cccc(-c2cc(NCc3ccc(OC)c(OC)c3)nc(N)n2)c1 | 0.7 | 0.4 | 0.24 | 76% | – | –
Nc1nc(-c2cccn2C2CCCCO2)cc(N2CCCc3ccccc3C2)n1 (configuration not stated) | – | 0.77 | 0.19 | – | – | –
COc1cccc(-c2cc(N3CC4CC(C3)c3ccccc34)nc(NS(=O)(=O)c3ccc(C)cc3)n2)c1 | – | 0.71 | 0.31 | – | – | –
COc1cccc(-c2cc(N3CCCc4ccccc4C3)nc(NS(=O)(=O)c3ccc(Cl)cc3)n2)c1 | – | – | 0.65 | – | – | –
COc1cccc(-c2cc(N3CCCc4ccc(C)cc4C3)nc(OC)n2)c1 | 0.88 | 0.43 | 0.11 | – | – | –
COc1cccc(-c2cc(NCCc3ccc4c(c3)OCO4)nc(N)n2)c1 | 0.86 | 0.34 | 0.05 | – | – | –
CCCC(CCC)C(=O)O [VALPROIC ACID] | – | – | – | – | 100% | 100%
CC(C)Oc1ccc(-c2cc(N3CCCc4ccccc4C3)nc(N)n2)cc1 | – | 0.87 | 0.37 | – | – | –

Source: ChEMBL document CHEMBL5584296, “Discovery of Novel Pyrimidine-Based Derivatives as Nav1.2 Inhibitors with Efficacy in Mouse Models of Epilepsy” (J Med Chem, 2024)
